Tests used:
CHO = assay: Cytotoxicity against CHO assessed as cell viability after 48 hrs by MTT assay; type: cell-based; conditions: Cricetulus griseus
Plasmodium falciparum [1] = assay: Antiplasmodial activity against chloroquine sensitive Plasmodium falciparum NF54 infected in human RBC after 48 hrs by [3H]hypoxanthine incorporation assay; type: functional, organism-based
[2] = Selectivity index, ratio of IC50 for CHO cells to IC50 for Plasmodium falciparum NF54; type: toxicity, cell-based; conditions: hamster, read-out: Ratio IC50
Plasmodium falciparum [3] = assay: Antiplasmodial activity against Plasmodium falciparum D10 infected in human RBC after 48 to 96 hrs by SYBR Green I dye-based fluorescence assay; type: functional, organism-based
[4] = Stability in RPMI medium supplemented with HEPES, NaHCO3, Neomycin and Albumax II after 48 hrs; type: physicochemical

## CC(=O)O[C@H]1C[C@@]2(C)[C@@H](C[C@@H](O)[C@H]3[C@@]4(C)CC[C@@H](O)[C@@H](C)[C@@H]4CC[C@@]32C)/C1=C(\CCC=C(C)C)c1nc(C)no1
CHO
  IC50: 47.8 µM
Plasmodium falciparum [1]
  IC50: 3.8 µM
[2]
  selectivity ratio: 13

## C[C@H]1[C@H](OC(=O)CCC(=O)O)O[C@@H]2O[C@@]3(C)CC[C@H]4[C@H](C)CC[C@@H]1[C@@]24OO3 [ARTESUNATE]
Plasmodium falciparum [1]
  IC50: 0.004 µM

## CC(=O)O[C@H]1C[C@@]2(C)[C@@H](C[C@@H](O)[C@H]3[C@@]4(C)CC[C@@H](O)[C@@H](C)[C@@H]4CC[C@@]32C)/C1=C(\CCC=C(C)C)C(=O)NS(=O)(=O)c1ccccc1
CHO
  IC50: 96.1 µM
Plasmodium falciparum [1]
  IC50: > 15 µM

## CC(=O)O[C@H]1C[C@@]2(C)[C@@H](C[C@@H](O)[C@H]3[C@@]4(C)CC[C@@H](O)[C@@H](C)[C@@H]4CC[C@@]32C)/C1=C(\CCC=C(C)C)C(=O)NN
CHO
  IC50: 112 µM
Plasmodium falciparum [1]
  IC50: 21.3 µM
[2]
  selectivity ratio: 5

## CC(=O)O[C@H]1C[C@@]2(C)[C@@H](C[C@@H](O)[C@H]3[C@@]4(C)CC[C@@H](O)[C@@H](C)[C@@H]4CC[C@@]32C)/C1=C(\CCC=C(C)C)C(N)=O
CHO
  IC50: 113 µM
Plasmodium falciparum [1]
  IC50: 35.9 µM
[2]
  selectivity ratio: 3

## CC(=O)O[C@H]1C[C@@]2(C)[C@@H](C[C@@H](O)[C@H]3[C@@]4(C)CC[C@@H](O)[C@@H](C)[C@@H]4CC[C@@]32C)/C1=C(\CCC=C(C)C)c1n[nH]c(=S)o1
CHO
  IC50: 70 µM
Plasmodium falciparum [1]
  IC50: 7 µM
[2]
  selectivity ratio: 10

## CC(=O)O[C@H]1C[C@@]2(C)[C@@H](C[C@@H](O)[C@H]3[C@@]4(C)CC[C@@H](O)[C@@H](C)[C@@H]4CC[C@@]32C)/C1=C(\CCC=C(C)C)c1n[nH]c(=O)o1
CHO
  IC50: 82 µM
Plasmodium falciparum [1]
  IC50: 9.2 µM
[2]
  selectivity ratio: 9

## CC(=O)O[C@H]1C[C@@]2(C)[C@@H](C[C@@H](O)[C@H]3[C@@]4(C)CC[C@@H](O)[C@@H](C)[C@@H]4CC[C@@]32C)/C1=C(\CCC=C(C)C)C(=O)NNS(=O)(=O)c1ccc(C)cc1
CHO
  IC50: 48.2 µM
Plasmodium falciparum [1]
  IC50: 13.4 µM
[2]
  selectivity ratio: 4

## CCCS(=O)(=O)NNC(=O)/C(CCC=C(C)C)=C1\[C@@H](OC(C)=O)C[C@@]2(C)[C@H]1C[C@@H](O)[C@H]1[C@@]3(C)CC[C@@H](O)[C@@H](C)[C@@H]3CC[C@@]12C
CHO
  IC50: 79.7 µM
Plasmodium falciparum [1]
  IC50: 5.7 µM
[2]
  selectivity ratio: 14

## CC(=O)O[C@H]1C[C@@]2(C)[C@@H](C[C@@H](O)[C@H]3[C@@]4(C)CC[C@@H](O)[C@@H](C)[C@@H]4CC[C@@]32C)/C1=C(\CCC=C(C)C)C(=O)Nc1nn[nH]n1
CHO
  IC50: > 171 µM
Plasmodium falciparum [1]
  IC50: > 15 µM

## CC(=O)O[C@H]1C[C@@]2(C)[C@@H](C[C@@H](O)[C@H]3[C@@]4(C)CC[C@@H](O)[C@@H](C)[C@@H]4CC[C@@]32C)/C1=C(\CCC=C(C)C)C(=O)NNC(=O)c1cccs1
CHO
  IC50: 78.8 µM
Plasmodium falciparum [1]
  IC50: 8.4 µM
[2]
  selectivity ratio: 9

## CC(=O)O[C@H]1C[C@@]2(C)[C@@H](C[C@@H](O)[C@H]3[C@@]4(C)CC[C@@H](O)[C@@H](C)[C@@H]4CC[C@@]32C)/C1=C(\CCC=C(C)C)C(=O)NS(C)(=O)=O
CHO
  IC50: > 169 µM
Plasmodium falciparum [1]
  IC50: > 15 µM

## CCc1noc(/C(CCC=C(C)C)=C2\[C@@H](OC(C)=O)C[C@@]3(C)[C@H]2C[C@@H](O)[C@H]2[C@@]4(C)CC[C@@H](O)[C@@H](C)[C@@H]4CC[C@@]23C)n1
CHO
  IC50: 71.7 µM
Plasmodium falciparum [1]
  IC50: 1.9 µM
[2]
  selectivity ratio: 38

## CC(=O)O[C@H]1C[C@@]2(C)[C@@H](C[C@@H](O)[C@H]3[C@@]4(C)CC[C@@H](O)[C@@H](C)[C@@H]4CC[C@@]32C)/C1=C(\CCC=C(C)C)c1nc(-c2ccc(F)cc2)no1
CHO
  IC50: 77.4 µM
Plasmodium falciparum [1]
  IC50: 1.7 µM
[2]
  selectivity ratio: 46

## CCCc1noc(/C(CCC=C(C)C)=C2\[C@@H](OC(C)=O)C[C@@]3(C)[C@H]2C[C@@H](O)[C@H]2[C@@]4(C)CC[C@@H](O)[C@@H](C)[C@@H]4CC[C@@]23C)n1
CHO
  IC50: 68.2 µM
Plasmodium falciparum [1]
  IC50: 2.1 µM
[2]
  selectivity ratio: 32

## CC(=O)O[C@H]1C[C@@]2(C)[C@@H](C[C@@H](O)[C@H]3[C@@]4(C)CC[C@@H](O)[C@@H](C)[C@@H]4CC[C@@]32C)/C1=C(\CCC=C(C)C)C(=O)O [FUSIDIC ACID]
CHO
  IC50: > 194 µM
Plasmodium falciparum [1]
  IC50: 59 µM
Plasmodium falciparum [3]
  IC50: 52.8 µM
[4]
  Stability: Stable
[2]
  selectivity ratio: > 3

## CC(=O)O[C@H]1C[C@@]2(C)[C@@H](C[C@@H](O)[C@H]3[C@@]4(C)CC[C@@H](O)[C@@H](C)[C@@H]4CC[C@@]32C)/C1=C(\CCC=C(C)C)C(=O)NNS(=O)(=O)c1ccc(Cl)cc1
CHO
  IC50: 53.2 µM
Plasmodium falciparum [1]
  IC50: 31.3 µM
[2]
  selectivity ratio: 2

## CC(=O)O[C@H]1C[C@@]2(C)[C@@H](C[C@@H](O)[C@H]3[C@@]4(C)CC[C@@H](O)[C@@H](C)[C@@H]4CC[C@@]32C)/C1=C(\CCC=C(C)C)C(=O)NS(=O)(=O)c1ccc(F)c(F)c1
CHO
  IC50: 81.4 µM
Plasmodium falciparum [1]
  IC50: 7.3 µM
[2]
  selectivity ratio: 11

## CCCCS(=O)(=O)NNC(=O)/C(CCC=C(C)C)=C1\[C@@H](OC(C)=O)C[C@@]2(C)[C@H]1C[C@@H](O)[C@H]1[C@@]3(C)CC[C@@H](O)[C@@H](C)[C@@H]3CC[C@@]12C
CHO
  IC50: 49.9 µM
Plasmodium falciparum [1]
  IC50: 8 µM
[2]
  selectivity ratio: 6

## CCS(=O)(=O)NNC(=O)/C(CCC=C(C)C)=C1\[C@@H](OC(C)=O)C[C@@]2(C)[C@H]1C[C@@H](O)[C@H]1[C@@]3(C)CC[C@@H](O)[C@@H](C)[C@@H]3CC[C@@]12C
CHO
  IC50: 77.3 µM
Plasmodium falciparum [1]
  IC50: 12.4 µM
[2]
  selectivity ratio: 6

## CC(=O)O[C@H]1C[C@@]2(C)[C@@H](C[C@@H](O)[C@H]3[C@@]4(C)CC[C@@H](O)[C@@H](C)[C@@H]4CC[C@@]32C)/C1=C(\CCC=C(C)C)C(=O)NC#N
CHO
  IC50: > 185 µM
Plasmodium falciparum [1]
  IC50: 10.8 µM
[2]
  selectivity ratio: > 17

— ChEMBL document CHEMBL3774384, “Synthesis of fusidic acid bioisosteres as antiplasmodial agents and molecular docking studies in the binding site of elongation factor-G” (Medchemcomm, 2015)
